According to ChEMBL document CHEMBL3507680, “University of Dundee, Gates Library screen for HepG2 cell viability”:

Test: Human HepG2 cell viability assay in 384 well format
Format: toxicity, cell-based
Parameters: dose 125 nL, time 70.5 hour; cytotoxicity at 70.5 h: concentration not given beside the values
Conditions: HepG2 cells, read-out: Inhibition

Compound	cytotoxicity at 70.5 h
CCOCc1nc(N2CCOCC2)sc1C(=O)NCc1ccco1	-6.85%
CCn1nc(C)c(CNC(=O)c2nnc3ccc(Cl)cc3n2)c1C	0.121%
Cc1nc(C)n(CC2CCCN(c3ncnc4ccccc34)C2)n1 (centres undefined)	-6.84%
Cc1cc(C)n(NC(=O)c2ccccc2C)c(=O)c1	-3.12%
Cc1nccn1-c1cc(CNC(=O)CCNC(=O)OC(C)(C)C)ccn1	-7.58%
O=C(C1CCCC1)N1CCC(C(O)c2ccc(F)cc2)CC1 (centres undefined)	-6.02%
Oc1ccccc1N1CCN(c2ncnc3sc4c(c23)CCNC4)CC1	2.19%
CC(C)(C)c1n[nH]c(C2CN(C(=O)c3cc(C4CC4)[nH]n3)CCO2)n1 (centres undefined)	-1.31%
Cc1cc(C)n(CC2CN(CC(=O)Nc3nncs3)CCO2)n1 (centres undefined)	0.137%
Fc1ccccc1CN1CCCC2(CCN(c3ncccn3)C2)C1 (centres undefined)	-9.02%
Cc1cc(NC(=O)CCN2CCCCC2Cn2cccn2)no1 (centres undefined)	-11.9%
CC(C)CC(=O)N1CCc2ccc(S(=O)(=O)N3CCN(C)CC3)cc2C1	-8.6%
COc1ccc(C)cc1NC(=O)Nc1cnc(O)nc1O	-6.34%
CCn1nc(C)c(NC(=O)c2cc(NC(=O)C(C)C)n(C)n2)c1C	-5.54%
CC(NC(N)=O)C(=O)NCc1ccc(Br)c(F)c1 (centres undefined)	0.261%
NC(=O)c1cc(NC(=O)N2CCCCCC2)ccc1F	35.1%
CCN1CC(C(=O)N2CCN(CCn3cccc3)CC2)CCC1=O (centres undefined)	1.29%
CNc1ncccc1C(=O)N1CCN(C)C2(CCN(C)CC2)C1	-7.09%
CC(O)CN1CCN(C(=O)CN(C)c2ccc(C#N)cn2)CC1 (centres undefined)	10.3%
CCN1CCOCC12CCN(C(=O)c1ccsc1)CC2	-7.84%
CN1CC(C(=O)NCc2ccc(OCc3cccnc3)cc2)CC1=O (centres undefined)	12.9%
Cc1cc(C)n(CC2(CNC(=O)C(c3ccccc3F)N(C)C)CC2)n1 (centres undefined)	-5.49%
Cc1cc(C(=O)NC(C)CC(=O)c2ccco2)[nH]n1 (centres undefined)	15.2%
Cc1cccc(CN2C(=O)CCC23CCN(C(=O)N2CCCC2)CC3)n1	0.698%
COc1cccc(-n2cc(-c3ccnc(N[C@H](CO)C(C)C)n3)cn2)c1	-2.44%
CCn1nnnc1-c1cccc(NCc2nc(C)ccc2O)c1	-6.25%
COc1ccc(OC)c(C(O)CN2CCN(C3CCCC3)CC2)c1 (centres undefined)	-7.66%

Compound	cytotoxicity at 70.5 h
CCOc1ccc(S(=O)(=O)NC(=O)CC2CCCO2)cc1 (centres undefined)	17.8%
C[C@@H]1CN(C(=O)c2ccccc2F)C[C@]12CCN(CCN(C)C)C2=O	-13.1%
Cc1cnc(N2C[C@H]3C[C@H](C(=O)N4CCN(C)CC4)N(C)[C@H]3C2)nc1	-9.1%
COc1cccc(CN2CCCCC2Cn2nc(C)nc2C)c1 (centres undefined)	-9.6%
CC(C)c1nccn1C1CCCN(C(=O)c2ccc3[nH]nnc3c2)C1 (centres undefined)	30.1%
CN(C)c1cc(C(F)(F)F)nc(N2CCCC2c2ccccn2)n1 (centres undefined)	-5.01%
Cc1c(F)cc(C(=O)O)cc1S(=O)(=O)Nc1ccc(C#N)cc1	19.6%
Cc1ccc(CN2CC[C@@H]3OCCN(Cc4ccncc4)[C@H]3CC2)s1	-6.32%
CCS(=O)(=O)c1ccc(N2CCC(NC(=O)NC(C)CO)CC2)cc1 (centres undefined)	-1.95%
COc1ccc2c(C)c(C(=O)N3CCC(NC(C)=O)C3)oc2c1 (centres undefined)	-3.36%
CN1CCC(N(C)CCC(=O)N2CCC(Cc3ccc(F)cc3)CC2)C1 (centres undefined)	24.2%
COc1ccc(Cl)cc1S(=O)(=O)N(C)CC(N)=O	-5%
CC(CNC(=O)c1cnccn1)Oc1cccc(Br)c1 (centres undefined)	12.9%
N#Cc1cccc(OC2CCN(C(=O)c3cncc(O)c3)CC2)c1	-2.58%
CSc1cc2c(cc1NC(=O)N(C)Cc1cnn(C)c1)OCCO2	2.84%
CC(=O)N(Cc1ncc(C)o1)C1CCN(Cc2cc(C)on2)C1 (centres undefined)	-4.42%
COc1ccc(Br)cc1CC(=O)N1CCCC1	-5.85%
CCN(CCCNCc1c(C)nn(C)c1N(C)C)S(C)(=O)=O	4.83%
Brc1cccc(C2(CNCc3cc[nH]c3)CCOCC2)c1	17.6%
CCn1ncc2c1CCCC2NCc1cccc2c1OCCCO2 (centres undefined)	-0.304%
Cc1noc(C)c1CN1C[C@@H]2COC[C@@H](C(=O)N3CCCO3)[C@@H]2C1	51.2%
Cc1nnsc1CN1C[C@H]2CC[C@@H]1CN(Cc1ccccn1)C2	-6.51%
Cc1cnn(CCNCc2csc(-c3ccccc3)n2)c1	15.6%
CC(C)N1CC(C(=O)N2CCC(Oc3ccccc3Cl)CC2)CC1=O (centres undefined)	-0.961%
Cc1cccc(CN2C[C@@H](CN3CCCN(C)CC3)C[C@H](CO)C2)n1	-5.2%
Cc1cc(C)n(Cc2cccc(C(=O)NCCN3CCOCC3)c2)n1	-6.51%
CCN1CCN(C(=O)c2ccc3c(c2)NC(=O)CN3)[C@H]2CS(=O)(=O)C[C@H]21	-8.61%

Compound	cytotoxicity at 70.5 h
Cc1csc(C2(NC(=O)NCCN3CCOCC3)CCCC2)n1	-7.84%
CN(CC(N)=O)C(=O)c1cnc(-c2ccc(Cl)s2)s1	-4.25%
Cn1ccc2ccc(C(=O)N3CCC[C@H]3C(=O)N3CCOCC3)cc21	-11.1%
CCN(CC)CCCNc1nccc(-c2cn(C)nc2C)n1	-3.41%
Cc1ccc(C)c(CC(=O)Nc2cnccc2SCCCO)c1	23.5%
CC(=O)c1ccc(N2CCCC(CO)(CCc3ccccc3)C2)nc1 (centres undefined)	-1.42%
O=C(NCc1nnc2n1CCC2)N1CCC2(CCCCC2)CC1	-12.2%
O=C(c1ncccc1O)N1CCc2c(ncnc2N2CCOCC2)C1	-4.02%
CC(C)c1cc(N2CCC(N)CC2)n2nccc2n1	-4%
COC(=O)[C@@H]1C[C@H](NC(=O)Cn2c(=O)cc(C)c3ccccc32)CN1C	26.6%
CN(C)C1CCCN(C(=O)NCCc2cc(F)ccc2F)C1 (centres undefined)	23.5%
Cc1cc(NC(=O)CN2CCCC(Cn3cncn3)C2)on1 (centres undefined)	-3%
Cc1ccc(C(=O)N2CCC(c3nccn3C(C)C)CC2)c(=O)[nH]1	-6.37%
CCC(=O)NCCc1cc2nc(-c3ccncc3)ccn2n1	-5.77%
CNC(=O)[C@@]12CCO[C@@H]1CCN(Cc1c(C)noc1C)C2	-6.35%
CCc1nc(NS(=O)(=O)c2ccc(C)cc2Cl)no1	-4.3%
CC(C)N(C)Cc1nnc2n1CCCN(C(=O)C1CCCO1)C2 (centres undefined)	-7.64%
Cc1cc(C)c(CNC(=O)N2CCCC2c2cccc(F)c2)c(=O)[nH]1 (centres undefined)	26%
Cc1cnn(C2CCCN(C(=O)c3cccc(Cn4ccnc4)c3)C2)c1 (centres undefined)	20.1%
CCn1ccnc1CN(C)C1CCCN(Cc2ccccc2F)C1 (centres undefined)	-1.31%
N[C@H]1CC[C@@H](n2cc(C(=O)NC3COc4ccccc43)nn2)CC1 (some centres undefined)	-0.524%
COc1cc(CN2CCCC2)ccc1Oc1ccc2c(c1)CC(CN)O2 (centres undefined)	1.9%
Cn1ccnc1C(=O)N[C@@H]1CN(Cc2cccs2)[C@@H]2CCCO[C@@H]21	-14.1%
CC1(C)OCC(CNC(=O)c2cnn(-c3cccc(Cl)c3Cl)c2N)O1 (centres undefined)	17%
O=S1(=O)NC(C2CCN(Cc3ccccn3)CC2)Nc2ccccc21 (centres undefined)	-9.26%
